Measured values taken from publication doi:10.1101/2023.10.20.563248v1 (biorxiv, 2023).

Assays:
Conditions in all cases: 1 µM; inhibitor
RPS6KA6 = RPS6KA6 (Homo sapiens, UniProt Q9UK32)
IKKb = IKKb (Homo sapiens, UniProt O14920)
AKT2 = AKT2 (Homo sapiens, UniProt P31751)
STK39 = STK39 (Homo sapiens, UniProt Q9UEW8)
PLK3 = PLK3 (Homo sapiens, UniProt Q9H4B4)
CHK1 = CHK1 (Homo sapiens, UniProt O14757)
FYN = FYN (Homo sapiens, UniProt P06241)
MARK4 = MARK4 (Homo sapiens, UniProt Q96L34)
SRMS = SRMS (Homo sapiens, UniProt Q9H3Y6)
ASK1 = ASK1 (Homo sapiens, UniProt Q99683)
BLK = BLK (Homo sapiens, UniProt P51451)
PRKG1 = PRKG1 (Homo sapiens, UniProt Q13976)
PKCd = PKCd (Homo sapiens, UniProt Q05655)
PKCd, sequence (Q05655 whole entry): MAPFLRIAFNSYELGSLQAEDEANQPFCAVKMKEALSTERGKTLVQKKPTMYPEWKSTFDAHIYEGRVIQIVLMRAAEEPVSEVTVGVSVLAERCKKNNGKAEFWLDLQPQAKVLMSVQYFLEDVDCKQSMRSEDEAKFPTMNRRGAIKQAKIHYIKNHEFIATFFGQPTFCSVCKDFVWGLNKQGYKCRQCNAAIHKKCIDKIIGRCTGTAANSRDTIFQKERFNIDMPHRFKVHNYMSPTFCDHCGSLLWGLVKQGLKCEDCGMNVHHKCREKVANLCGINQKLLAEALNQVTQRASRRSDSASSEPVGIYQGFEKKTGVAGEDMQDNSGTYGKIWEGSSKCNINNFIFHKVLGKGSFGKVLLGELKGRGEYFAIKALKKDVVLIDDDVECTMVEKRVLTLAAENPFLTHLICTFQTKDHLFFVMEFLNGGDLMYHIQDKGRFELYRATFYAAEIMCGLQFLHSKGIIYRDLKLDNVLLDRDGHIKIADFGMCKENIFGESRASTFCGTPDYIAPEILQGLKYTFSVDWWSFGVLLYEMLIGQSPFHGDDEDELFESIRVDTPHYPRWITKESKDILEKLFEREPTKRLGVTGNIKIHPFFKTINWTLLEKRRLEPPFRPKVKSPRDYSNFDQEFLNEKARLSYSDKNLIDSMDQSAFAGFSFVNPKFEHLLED

INSR = INSR (Homo sapiens, UniProt P06213)
FGFR3 = FGFR3 (Homo sapiens, UniProt P22607)
AXL = AXL (Homo sapiens, UniProt P30530)
PKMzeta = PKMzeta (Homo sapiens, UniProt Q05513)
GRK3 = GRK3 (Homo sapiens, UniProt P35626)
GRK3, sequence (P35626 whole entry): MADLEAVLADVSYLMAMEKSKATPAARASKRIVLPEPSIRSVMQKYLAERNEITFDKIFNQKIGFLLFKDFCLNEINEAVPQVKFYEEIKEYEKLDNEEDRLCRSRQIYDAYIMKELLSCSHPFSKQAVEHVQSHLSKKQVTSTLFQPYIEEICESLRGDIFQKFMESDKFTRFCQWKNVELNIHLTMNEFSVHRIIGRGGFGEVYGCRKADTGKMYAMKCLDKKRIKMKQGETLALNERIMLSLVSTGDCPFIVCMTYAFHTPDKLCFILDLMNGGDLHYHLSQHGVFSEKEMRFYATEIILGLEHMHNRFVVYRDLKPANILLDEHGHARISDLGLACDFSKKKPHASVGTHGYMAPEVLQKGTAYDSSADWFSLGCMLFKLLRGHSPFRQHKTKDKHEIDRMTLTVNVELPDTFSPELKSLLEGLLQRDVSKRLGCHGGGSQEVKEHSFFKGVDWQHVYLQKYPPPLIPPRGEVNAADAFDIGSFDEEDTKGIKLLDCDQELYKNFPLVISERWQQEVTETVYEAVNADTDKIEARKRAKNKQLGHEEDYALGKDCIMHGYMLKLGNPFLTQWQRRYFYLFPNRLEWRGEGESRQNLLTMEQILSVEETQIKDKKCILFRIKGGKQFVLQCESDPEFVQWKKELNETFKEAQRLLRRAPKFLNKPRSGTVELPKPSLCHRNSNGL

MARK2 = MARK2 (Homo sapiens, UniProt Q7KZI7)
MET = MET (Homo sapiens, UniProt P08581)
MET, sequence (P08581 whole entry): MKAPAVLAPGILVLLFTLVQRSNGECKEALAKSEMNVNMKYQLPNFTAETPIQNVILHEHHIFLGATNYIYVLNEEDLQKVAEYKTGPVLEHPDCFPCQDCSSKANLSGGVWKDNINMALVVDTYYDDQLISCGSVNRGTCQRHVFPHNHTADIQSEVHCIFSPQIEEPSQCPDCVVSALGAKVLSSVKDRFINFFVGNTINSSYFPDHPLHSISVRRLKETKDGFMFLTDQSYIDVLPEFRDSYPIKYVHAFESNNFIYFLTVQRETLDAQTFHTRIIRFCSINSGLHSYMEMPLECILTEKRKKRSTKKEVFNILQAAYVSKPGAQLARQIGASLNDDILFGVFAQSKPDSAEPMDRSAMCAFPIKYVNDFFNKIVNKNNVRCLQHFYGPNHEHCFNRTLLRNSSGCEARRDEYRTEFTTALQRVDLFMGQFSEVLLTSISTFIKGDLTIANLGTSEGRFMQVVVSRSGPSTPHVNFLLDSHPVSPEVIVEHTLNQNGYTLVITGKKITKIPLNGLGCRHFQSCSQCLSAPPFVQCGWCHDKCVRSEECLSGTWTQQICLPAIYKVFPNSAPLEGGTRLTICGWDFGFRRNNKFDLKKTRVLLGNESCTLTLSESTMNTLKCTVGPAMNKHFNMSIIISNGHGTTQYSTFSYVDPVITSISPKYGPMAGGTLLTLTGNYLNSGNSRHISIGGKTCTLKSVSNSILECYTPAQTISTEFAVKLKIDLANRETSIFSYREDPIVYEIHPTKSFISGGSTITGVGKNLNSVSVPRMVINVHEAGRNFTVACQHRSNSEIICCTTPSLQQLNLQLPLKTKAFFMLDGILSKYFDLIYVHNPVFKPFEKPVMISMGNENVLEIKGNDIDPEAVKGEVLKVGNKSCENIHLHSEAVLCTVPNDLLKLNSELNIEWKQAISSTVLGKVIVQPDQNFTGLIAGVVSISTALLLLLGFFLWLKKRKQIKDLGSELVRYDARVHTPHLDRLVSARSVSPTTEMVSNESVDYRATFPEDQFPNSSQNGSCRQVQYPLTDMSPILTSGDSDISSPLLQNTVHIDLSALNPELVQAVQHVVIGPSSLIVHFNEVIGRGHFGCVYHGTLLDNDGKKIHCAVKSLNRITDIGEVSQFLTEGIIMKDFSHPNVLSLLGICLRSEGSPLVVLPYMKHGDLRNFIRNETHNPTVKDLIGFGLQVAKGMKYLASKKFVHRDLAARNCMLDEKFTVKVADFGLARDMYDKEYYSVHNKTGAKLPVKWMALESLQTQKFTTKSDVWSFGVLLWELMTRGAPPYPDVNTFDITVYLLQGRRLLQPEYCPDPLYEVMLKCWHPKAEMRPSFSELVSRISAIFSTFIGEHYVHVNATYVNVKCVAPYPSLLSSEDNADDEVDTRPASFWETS

FES = FES (Homo sapiens, UniProt P07332)
LCK = LCK (Homo sapiens, UniProt P06239)
RET = RET (Homo sapiens, UniProt P07949)
MKNK1 = MKNK1 (Homo sapiens, UniProt Q9BUB5)
MKNK1, sequence (Q9BUB5 whole entry): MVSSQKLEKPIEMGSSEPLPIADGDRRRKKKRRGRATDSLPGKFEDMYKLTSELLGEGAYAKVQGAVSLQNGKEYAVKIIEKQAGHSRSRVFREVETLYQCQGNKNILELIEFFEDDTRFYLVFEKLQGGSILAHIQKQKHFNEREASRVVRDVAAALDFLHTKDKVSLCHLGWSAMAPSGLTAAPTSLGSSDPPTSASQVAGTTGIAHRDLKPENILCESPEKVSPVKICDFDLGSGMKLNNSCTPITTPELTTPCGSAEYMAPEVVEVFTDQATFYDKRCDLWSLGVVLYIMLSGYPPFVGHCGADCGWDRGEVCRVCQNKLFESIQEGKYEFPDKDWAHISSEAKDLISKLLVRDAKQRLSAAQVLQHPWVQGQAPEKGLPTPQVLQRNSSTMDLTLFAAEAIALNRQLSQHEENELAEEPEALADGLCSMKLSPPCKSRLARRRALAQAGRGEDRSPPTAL

ACVR1 = ACVR1 (Homo sapiens, UniProt Q04771)
GRK5 = GRK5 (Homo sapiens, UniProt P34947)
CDK3 = CDK3 (Homo sapiens, UniProt Q00526)
JNK1 = JNK1 (Homo sapiens, UniProt P45983)
JNK1, sequence (P45983 whole entry): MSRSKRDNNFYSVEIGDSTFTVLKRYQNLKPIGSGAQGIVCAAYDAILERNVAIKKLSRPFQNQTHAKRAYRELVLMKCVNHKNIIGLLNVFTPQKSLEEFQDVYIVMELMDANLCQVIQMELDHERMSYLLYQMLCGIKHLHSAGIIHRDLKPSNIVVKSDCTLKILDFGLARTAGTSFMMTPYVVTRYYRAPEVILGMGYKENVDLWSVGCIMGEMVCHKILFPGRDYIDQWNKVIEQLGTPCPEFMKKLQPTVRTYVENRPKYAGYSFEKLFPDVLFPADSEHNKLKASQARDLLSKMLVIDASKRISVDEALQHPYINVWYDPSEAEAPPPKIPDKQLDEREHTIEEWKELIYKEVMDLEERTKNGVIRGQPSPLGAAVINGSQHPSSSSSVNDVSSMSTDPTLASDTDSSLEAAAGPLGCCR

ARK5 = ARK5 (Homo sapiens, UniProt O60285)
ARK5, sequence (O60285 whole entry): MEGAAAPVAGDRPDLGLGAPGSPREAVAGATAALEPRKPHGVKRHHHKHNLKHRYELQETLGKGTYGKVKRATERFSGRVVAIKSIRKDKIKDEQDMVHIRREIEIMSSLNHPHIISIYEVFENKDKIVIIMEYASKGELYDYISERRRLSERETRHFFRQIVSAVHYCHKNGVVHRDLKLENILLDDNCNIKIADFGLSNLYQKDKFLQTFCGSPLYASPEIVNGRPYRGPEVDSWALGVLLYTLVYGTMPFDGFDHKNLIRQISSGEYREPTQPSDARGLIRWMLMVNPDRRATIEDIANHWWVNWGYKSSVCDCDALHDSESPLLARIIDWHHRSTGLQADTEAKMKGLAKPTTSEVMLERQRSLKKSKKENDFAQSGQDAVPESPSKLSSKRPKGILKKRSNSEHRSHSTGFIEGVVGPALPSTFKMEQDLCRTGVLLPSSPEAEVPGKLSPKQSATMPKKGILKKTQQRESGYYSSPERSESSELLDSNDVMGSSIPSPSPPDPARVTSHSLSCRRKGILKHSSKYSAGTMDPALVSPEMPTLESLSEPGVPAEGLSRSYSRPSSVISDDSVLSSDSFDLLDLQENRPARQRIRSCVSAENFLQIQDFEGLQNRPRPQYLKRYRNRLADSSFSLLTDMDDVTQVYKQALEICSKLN

PAK6 = PAK6 (Homo sapiens, UniProt Q9NQU5)
ACVR2B = ACVR2B (Homo sapiens, UniProt Q13705)

PLK3, sequence (Q9H4B4 whole entry): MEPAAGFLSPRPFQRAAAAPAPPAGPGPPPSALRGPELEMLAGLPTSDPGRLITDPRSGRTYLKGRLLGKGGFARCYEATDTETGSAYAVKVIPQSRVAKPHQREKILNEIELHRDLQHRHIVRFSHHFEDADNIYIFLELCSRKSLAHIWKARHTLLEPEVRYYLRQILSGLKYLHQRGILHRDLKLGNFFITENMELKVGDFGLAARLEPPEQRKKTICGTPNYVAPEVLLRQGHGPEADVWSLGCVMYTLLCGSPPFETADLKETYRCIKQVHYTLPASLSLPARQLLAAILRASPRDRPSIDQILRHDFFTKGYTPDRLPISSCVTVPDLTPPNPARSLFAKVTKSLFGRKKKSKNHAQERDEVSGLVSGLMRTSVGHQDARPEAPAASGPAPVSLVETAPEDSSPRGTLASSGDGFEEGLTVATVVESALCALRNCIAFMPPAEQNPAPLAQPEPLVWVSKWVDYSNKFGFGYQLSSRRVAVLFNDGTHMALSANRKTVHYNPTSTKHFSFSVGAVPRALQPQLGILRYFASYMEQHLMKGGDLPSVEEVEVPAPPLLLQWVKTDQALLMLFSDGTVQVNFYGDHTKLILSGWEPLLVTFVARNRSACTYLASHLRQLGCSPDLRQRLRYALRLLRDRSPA

O=C1NCCCCCNc2nc(c3ccccc3n2)Nc2cc1[nH]n2 [21c, (Z)-3^1H-2,5,11-triaza-1(4,2)-quinazolina-3(3,5)-pyrazolacycloundecaphan-4-one]
21c Remaining activity, percent of control [%] (RPS6KA6): 73.5%
21c Remaining activity, percent of control [%] (IKKb): 94.0%
21c Remaining activity, percent of control [%] (AKT2): 90.3%
21c Remaining activity, percent of control [%] (STK39): 49.5%
21c Remaining activity, percent of control [%] (PLK3): 102.7%
21c Remaining activity, percent of control [%] (CHK1): 112.0%
21c Remaining activity, percent of control [%] (FYN): 56.6%
21c Remaining activity, percent of control [%] (MARK4): 100.1%
21c Remaining activity, percent of control [%] (SRMS): 81.5%
21c Remaining activity, percent of control [%] (ASK1): 97.7%
21c Remaining activity, percent of control [%] (BLK): 98.6%
21c Remaining activity, percent of control [%] (PRKG1): 94.8%
21c Remaining activity, percent of control [%] (PKCd): 91.4%
21c Remaining activity, percent of control [%] (INSR): 98.0%
21c Remaining activity, percent of control [%] (FGFR3): 99.8%
21c Remaining activity, percent of control [%] (AXL): 80.2%
21c Remaining activity, percent of control [%] (PKMzeta): 96.2%
21c Remaining activity, percent of control [%] (GRK3): 97.4%
21c Remaining activity, percent of control [%] (MARK2): 98.8%
21c Remaining activity, percent of control [%] (MET): 107.2%
21c Remaining activity, percent of control [%] (FES): 100.7%
21c Remaining activity, percent of control [%] (LCK): 92.0%
21c Remaining activity, percent of control [%] (RET): 122.5%
21c Remaining activity, percent of control [%] (MKNK1): 97.3%
21c Remaining activity, percent of control [%] (ACVR1): 81.0%
21c Remaining activity, percent of control [%] (GRK5): 103.8%
21c Remaining activity, percent of control [%] (CDK3): 95.9%
21c Remaining activity, percent of control [%] (JNK1): 95.6%
21c Remaining activity, percent of control [%] (ARK5): 86.3%
21c Remaining activity, percent of control [%] (PAK6): 95.0%
21c Remaining activity, percent of control [%] (ACVR2B): 100.5%
